The values below come from patent US4652566A, “Benzofuran derivatives, processes for preparing the same and antihypertensive agents containing the same” (Kaken Pharmaceutical Co., Ltd., priority 1984, dated 1987).

Each structure is given as a SMILES string. Counter-ions that a name gives are not always drawn. Like-named read-outs stand apart in the source and are kept apart here. Bounds are passed on as bounds.

Data set [1] can be described thus: Antihypertensive effect and effect on heart rate in spontaneously hypertensive rat (SHR). The data set is classed as in vivo. To be noted: po, single dose. As for the experimental part: [Antihypertensive effect and effect on a heart rate on rat suffering from a spontaneously hypertensive rat (SHR)]
A blood pressure was measured under no anesthetic condition by means of an apparatus for recording a blood pressure of a tail artery and a heart rate (Riken Kaihatsu Co., Ltd.) (PS-802) and at the same time a heart rate was also measured.
Each of test compounds was dissolved or suspended in an aqueous solution containing 5% by weight of acasia and the obtained solution or suspension was administered once orally to SHR which had been kept under a fast condition for one night. A blood pressure and a heart rate were measured before administration and after one hour, three hours, five hours and seven hours of it and the maximum value of changes were calculated by comparing the value measured before administration with the value measured after administration.
For the purpose of a comparison, the same experiment as mentioned above was carried out on both Labetalol and Diltiazem as mentioned above.
With respect to a dosage, 100 mg/kg and 10 mg/kg as to compounds obtained by Examples 2, 5, 6, 9 and 18 to 23 were respectively administered, 100 mg/kg as to compounds obtained by Examples 1, 3, 4, 7 and 10 to 17 was respectively administered.

Data set [2] concerns the target T1, α-adrenergic blockade (vas deferens specimen, contraction by noradrenalin) (Rattus norvegicus, UniProt P43140).
T1 construct: from tissue; host or cells: vas deferens of six-week-old male Wistar rat
T1 sequence (P43140 1-466): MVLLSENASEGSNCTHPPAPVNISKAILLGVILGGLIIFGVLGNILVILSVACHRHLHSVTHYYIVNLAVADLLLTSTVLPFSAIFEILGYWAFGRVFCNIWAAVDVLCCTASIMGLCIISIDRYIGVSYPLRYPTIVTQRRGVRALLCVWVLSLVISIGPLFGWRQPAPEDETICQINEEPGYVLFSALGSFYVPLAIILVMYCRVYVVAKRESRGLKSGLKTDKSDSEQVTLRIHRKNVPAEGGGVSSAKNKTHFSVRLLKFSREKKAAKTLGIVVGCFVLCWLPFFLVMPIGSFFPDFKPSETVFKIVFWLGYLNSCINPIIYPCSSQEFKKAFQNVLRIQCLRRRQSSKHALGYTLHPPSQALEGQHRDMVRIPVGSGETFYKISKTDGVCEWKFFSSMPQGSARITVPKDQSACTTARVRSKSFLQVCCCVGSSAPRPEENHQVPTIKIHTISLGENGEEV
The experiment in a line: α-Adrenergic blockade effect (contraction response by noradrenalin of vas deferens specimen, Magnus method). Further details: species or system Wister male rat.

Data set [3] addresses T2, calcium antagonism (thoracic aorta spiral specimen, contraction by calcium) (Cavia porcellus, UniProt O35505).
T2 construct: from tissue; host or cells: thoracic aorta spiral strip of male Hartley guinea pig
Put plainly: Calcium antagonistic effect (contraction response by calcium of spiral thoracic aorta specimen, Magnus method). As to conditions: guinea pig thoracic aorta, antagonism of calcium contraction; for Kb: read-out: Calcium antagonistic effect, pA2 value (converted). More on the design: species or system Hartly male giunea pig. The procedure:
[Calcium antagonistic effect]
Using a spiral blood vessel specimen taken from a thoracic aorta of Hartly male giunea pig weighed 400 to 600 g, a contraction response by calcium was measured as a dose-response curve according to Magnus method and the antagonistic activity for each test compound was indicated as above-mentioned pA2 value.

Data set [4] is described as follows: Accute toxicity test (LD50 value). To be noted: mouse, in vivo; mice; single oral administration; deaths by seventh day; Litchfield-Wilcoxon. The procedure: [Accute toxicity test (LD50 value)]
The experiment was carried out using six weeks old ddy male mice.
Each of test compounds was suspended in an aqueous solution containing 5% by weight of acasia and the suspension was administered compulsorily once orally with a gastric probe. Within six hours after the start of the administration, the behavior of tested mice were observed consecutively. Thereafter, the observation was made at an interval of twenty four hours during 7 days and an accumulative number of deaths seventh day since the start of the administration was measured.
LD50 value was calculated according to the Litchfield-Wilcoxon method.

[5] abbreviates: 10 mg/kg, maximum over 1, 3, 5, 7 hours (Table 2).
[6] abbreviates: 100 mg/kg, maximum over 1, 3, 5, 7 hours (Table 2).
Setting [7] is: 100 mg/kg, maximum over 1, 3, 5, 7 hours (Table 3).
Setting [8] is: rat vas deferens, antagonism of noradrenalin contraction, pA2 = negative logarithm of antagonist dose shifting agonist curve two times, read-out: α-Adrenergic blockade effect, pA2 value (converted).
Where [9] appears, read: rat vas deferens, antagonism of noradrenalin contraction, pA2 = negative logarithm of antagonist dose shifting agonist curve two times.

T2 sequence (O35505 whole entry): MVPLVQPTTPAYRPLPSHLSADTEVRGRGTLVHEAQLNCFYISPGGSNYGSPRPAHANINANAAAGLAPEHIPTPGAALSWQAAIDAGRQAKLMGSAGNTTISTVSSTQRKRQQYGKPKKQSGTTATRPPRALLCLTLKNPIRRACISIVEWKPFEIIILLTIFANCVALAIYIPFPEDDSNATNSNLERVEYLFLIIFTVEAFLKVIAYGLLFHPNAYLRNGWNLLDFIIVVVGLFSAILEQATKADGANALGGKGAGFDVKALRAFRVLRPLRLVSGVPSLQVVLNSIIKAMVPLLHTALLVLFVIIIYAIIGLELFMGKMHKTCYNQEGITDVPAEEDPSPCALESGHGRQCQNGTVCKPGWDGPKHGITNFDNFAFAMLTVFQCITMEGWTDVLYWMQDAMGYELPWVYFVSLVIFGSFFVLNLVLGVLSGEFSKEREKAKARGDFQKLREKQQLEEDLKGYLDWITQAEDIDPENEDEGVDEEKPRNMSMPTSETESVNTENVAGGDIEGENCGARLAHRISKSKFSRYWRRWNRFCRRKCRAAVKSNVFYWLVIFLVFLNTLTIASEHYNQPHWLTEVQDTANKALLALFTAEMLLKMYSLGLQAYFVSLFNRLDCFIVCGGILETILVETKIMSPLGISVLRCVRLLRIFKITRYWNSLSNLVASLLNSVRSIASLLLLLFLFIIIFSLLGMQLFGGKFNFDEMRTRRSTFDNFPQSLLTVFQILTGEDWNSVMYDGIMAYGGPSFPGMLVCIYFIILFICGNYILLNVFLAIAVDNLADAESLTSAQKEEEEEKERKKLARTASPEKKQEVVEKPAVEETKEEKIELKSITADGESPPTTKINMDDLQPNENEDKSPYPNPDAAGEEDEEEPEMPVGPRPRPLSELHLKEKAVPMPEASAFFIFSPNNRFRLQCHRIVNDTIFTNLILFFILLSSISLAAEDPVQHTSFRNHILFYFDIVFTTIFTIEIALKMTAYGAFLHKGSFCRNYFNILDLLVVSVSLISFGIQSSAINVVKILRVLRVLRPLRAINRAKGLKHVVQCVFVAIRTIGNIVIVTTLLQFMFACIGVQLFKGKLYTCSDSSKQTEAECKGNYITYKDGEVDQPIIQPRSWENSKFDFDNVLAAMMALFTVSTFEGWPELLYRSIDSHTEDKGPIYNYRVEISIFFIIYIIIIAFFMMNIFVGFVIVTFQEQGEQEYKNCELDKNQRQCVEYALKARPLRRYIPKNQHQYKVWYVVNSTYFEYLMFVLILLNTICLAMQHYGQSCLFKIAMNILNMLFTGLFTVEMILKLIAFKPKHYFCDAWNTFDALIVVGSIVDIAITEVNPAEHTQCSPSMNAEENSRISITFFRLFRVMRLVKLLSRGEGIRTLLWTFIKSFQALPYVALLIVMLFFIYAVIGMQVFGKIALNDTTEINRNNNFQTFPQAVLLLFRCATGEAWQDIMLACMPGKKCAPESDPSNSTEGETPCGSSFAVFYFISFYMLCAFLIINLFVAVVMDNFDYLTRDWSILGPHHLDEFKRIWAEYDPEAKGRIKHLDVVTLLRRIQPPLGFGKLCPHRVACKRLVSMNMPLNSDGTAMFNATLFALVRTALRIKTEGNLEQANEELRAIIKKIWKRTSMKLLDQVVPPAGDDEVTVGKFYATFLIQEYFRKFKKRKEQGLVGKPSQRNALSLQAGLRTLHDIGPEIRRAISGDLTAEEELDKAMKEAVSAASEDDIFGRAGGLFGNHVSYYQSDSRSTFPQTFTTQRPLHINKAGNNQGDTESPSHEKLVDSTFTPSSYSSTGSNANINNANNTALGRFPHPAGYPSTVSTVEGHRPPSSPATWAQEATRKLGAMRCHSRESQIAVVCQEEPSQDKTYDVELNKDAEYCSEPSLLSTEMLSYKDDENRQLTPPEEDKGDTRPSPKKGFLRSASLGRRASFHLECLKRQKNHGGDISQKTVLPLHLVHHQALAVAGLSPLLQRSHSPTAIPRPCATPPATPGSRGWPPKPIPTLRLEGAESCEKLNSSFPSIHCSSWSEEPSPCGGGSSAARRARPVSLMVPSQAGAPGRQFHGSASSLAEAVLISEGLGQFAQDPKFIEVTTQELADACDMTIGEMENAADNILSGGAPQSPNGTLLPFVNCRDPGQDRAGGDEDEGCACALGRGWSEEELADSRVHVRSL

Regarding `COc1ccc([C@@H]2Sc3ccccc3N(CCN(C)C)C(=O)[C@@H]2OC(C)=O)cc1` [Diltiazem, reference compound], the “Maximum value of change, heart rate” value is -140.0 ± 27.5 beats/min in data set [1] (setting [5]), -136.7 ± 34.2 beats/min in data set [1] (setting [6]) and -136.7 ± 34.2 beats/min in data set [1] (setting [7]). Moreover, the entries for the “Maximum value of change, systolic pressure” value in data set [1] (setting [5]), in data set [1] (setting [6]) and in data set [1] (setting [7]) were -12.8 ± 5.7 mmHg, -79.9 ± 11.6 mmHg and -79.9 ± 11.6 mmHg, respectively.

As a reminder, the LD50 is the dose expected to kill half of the subjects tested. A lower LD50 goes with a more toxic substance. As for `CC(=O)c1cc2cccc(OCC(O)CN3CCN(c4ccccc4)CC3)c2o1` (stereo not drawn) [Ex. 1 (HCl salt), 2-acetyl-7-[3-(4-phenylpiperazinyl)-2-hydroxypropoxy]benzofuran], in data set [1] (setting [7]), the “Maximum value of change, heart rate” value was -105.8 ± 3.4 beats/min and the “Maximum value of change, systolic pressure” value is recorded as -74.6 ± 5.6 mmHg. Moreover, the Kb in data set [2] (setting [8]) is 209 nM. The Kb in data set [3] was 2950 nM. The same compound yielded a median lethal dose (LD50) at 168 h in data set [4] above 1000 mg/kg.

As to `COc1ccccc1N1CCN(CC(O)COc2cccc3cc(C(C)=O)oc23)CC1` (stereo not drawn) [Ex. 2, 2-acetyl-7-{2-hydroxy-3-[4-(2-methoxyphenyl)piperazinyl]-propoxy}benzofuran], in data set [1] (setting [5]), the “Maximum value of change, heart rate” value is given as -121.7 ± 15 beats/min and the “Maximum value of change, systolic pressure” value is -54.8 ± 11.2 mmHg. In data set [1] (setting [6]), the “Maximum value of change, heart rate” value is given as -155.6 ± 15.5 beats/min and the “Maximum value of change, systolic pressure” value is -72.4 ± 8.9 mmHg. The compound also came in with an LD50 at 168 h in data set [4] above 1500 mg/kg.

Regarding `COc1ccccc1N1CCN(CC(O)COc2ccc3oc(C(C)=O)cc3c2)CC1` (stereo not drawn) [Ex. 5], the “Maximum value of change, heart rate” value in data set [1] (setting [5]) was -49.2 ± 28.0 beats/min; in data set [1] (setting [6]), -143.4 ± 34.2 beats/min. Moreover, the “Maximum value of change, systolic pressure” value in data set [1] (setting [5]) is on record as -56.3 ± 6.0 mmHg; in data set [1] (setting [6]), -101.3 ± 5.2 mmHg.

In the case of `CC(=O)c1cc2cccc(OCC(O)CN3CCN(c4ccccc4C)CC3)c2o1` (stereo not drawn) [Ex. 6 (HCl salt), 2-acetyl-7-{2-hydroxy-3-[4-(2-methylphenyl)-piperazinyl]propoxy}benzofuran], the Kb in data set [2] (setting [8]) is 44.7 nM; in data set [3], 468 nM. In data set [4], this compound registered a 50% lethal dose (LD50) at 168 h above 1500 mg/kg.

For `CC(=O)c1cc2cccc(OCC(O)CN3CCN(c4ccccc4C)CC3)c2o1` (stereo not drawn) [Ex. 6, 2-acetyl-7-{2-hydroxy-3-[4-(2-methylphenyl)-piperazinyl]propoxy}benzofuran], in data set [1] (setting [5]), the “Maximum value of change, heart rate” value is reported as -70.0 ± 20.3 beats/min and the “Maximum value of change, systolic pressure” value was -71.7 ± 4.9 mmHg. Besides, in data set [1] (setting [6]), the “Maximum value of change, heart rate” value is recorded as -135.8 ± 17.0 beats/min and the “Maximum value of change, systolic pressure” value is reported as -90.3 ± 9.2 mmHg.

As for `CC(=O)c1cc2cc(OCC(O)CN3CCN(c4ccccc4C)CC3)ccc2o1` (stereo not drawn) [Ex. 7 (HCl salt)], the Kb in data set [2] (setting [8]) was 219 nM; in data set [3], 631 nM. The compound also returned an LD50 at 168 h in data set [4] above 2000 mg/kg.

As to `CC(=O)c1cc2cc(OCC(O)CN3CCN(c4ccccc4C)CC3)ccc2o1` (stereo not drawn) [Ex. 7], the “Maximum value of change, heart rate” value is -45.0 ± 17.2 beats/min in data set [1] (setting [5]) and -51.3 ± 20.2 beats/min in data set [1] (setting [6]). The “Maximum value of change, systolic pressure” value in data set [1] (setting [5]) is on record as -86.4 ± 8.6 mmHg; in data set [1] (setting [6]), -117.5 ± 12.6 mmHg.

Regarding `CCOC(=O)c1cc2cccc(OCC(O)CN3CCN(c4ccccc4OC)CC3)c2o1` (stereo not drawn) [Ex. 18 (HCl salt), 2-ethoxycarbonyl-7-{2-hydroxy-3-[4-(2-methoxyphenyl)-piperazinyl]propoxy}benzofuran], the Kb was 74.1 nM in data set [2] (setting [8]) and 209 nM in data set [3]. In data set [4], the LD50 at 168 h is above 1000 mg/kg.

On to `CCOC(=O)c1cc2cccc(OCC(O)CN3CCN(c4ccccc4OC)CC3)c2o1` (stereo not drawn) [Ex. 18, 2-ethoxycarbonyl-7-{2-hydroxy-3-[4-(2-methoxyphenyl)-piperazinyl]propoxy}benzofuran], for which, in data set [1] (setting [5]), the “Maximum value of change, heart rate” value is on record as -96.7 ± 35.1 beats/min and the “Maximum value of change, systolic pressure” value is on record as -35.8 ± 4.6 mmHg. Also, in data set [1] (setting [6]), the “Maximum value of change, heart rate” value is -138.3 ± 25.4 beats/min and the “Maximum value of change, systolic pressure” value is -65.1 ± 5.5 mmHg.

As for `CCOC(=O)c1cc2cc(OCC(O)CN3CCN(c4ccccc4OC)CC3)ccc2o1` (stereo not drawn) [Ex. 19 (HCl salt), 2-ethoxycarbonyl-5-{2-hydroxy-3-[4-(2-methoxyphenyl)piperrazinyl]propoxy}benzofuran], the “α-Adrenergic blockade effect, pA2 value” in data set [2] (setting [9]) was found to be 6.72 ± 0.03. The “Calcium antagonistic effect, pA2 value” in data set [3] was determined as 5.28 ± 0.14. Besides, in data set [4], the LD50 at 168 h was above 1500 mg/kg.

Turning to `CCOC(=O)c1cc2cc(OCC(O)CN3CCN(c4ccccc4OC)CC3)ccc2o1` (stereo not drawn) [Ex. 19, 2-ethoxycarbonyl-5-{2-hydroxy-3-[4-(2-methoxyphenyl)piperrazinyl]propoxy}benzofuran], in data set [1] (setting [5]), the “Maximum value of change, heart rate” value was -68.4 ± 45.1 beats/min and the “Maximum value of change, systolic pressure” value was -37.6 ± 9.0 mmHg. In data set [1] (setting [6]), the “Maximum value of change, heart rate” value is -73.4 ± 19.6 beats/min and the “Maximum value of change, systolic pressure” value is -60.1 ± 10.8 mmHg.

Consider `CCOC(=O)c1cc2cc(OCC(O)CN3CCN(c4ccccc4C)CC3)ccc2o1` (stereo not drawn) [Ex. 20 (HCl salt), 2-ethoxycarbonyl-5-{2-hydroxy-3-[4-(2-methylphenyl)-piperazinyl]propoxy}benzofuran], for which the “α-Adrenergic blockade effect, pA2 value” in data set [2] (setting [9]) was 6.46 ± 0.09. Moreover, the “Calcium antagonistic effect, pA2 value” in data set [3] worked out at 4.88 ± 0.70. In data set [4], this compound gave a 50% lethal dose (LD50) at 168 h above 1500 mg/kg.

As to `CCOC(=O)c1cc2cc(OCC(O)CN3CCN(c4ccccc4C)CC3)ccc2o1` (stereo not drawn) [Ex. 20, 2-ethoxycarbonyl-5-{2-hydroxy-3-[4-(2-methylphenyl)-piperazinyl]propoxy}benzofuran], in data set [1] (setting [5]), the “Maximum value of change, heart rate” value was -81.1 ± 22.2 beats/min and the “Maximum value of change, systolic pressure” value is listed as -57.5 ± 12.5 mmHg. Also, in data set [1] (setting [6]), the “Maximum value of change, heart rate” value was -87.5 ± 17.7 beats/min and the “Maximum value of change, systolic pressure” value was -80.7 ± 13.6 mmHg.

Regarding `COc1ccccc1N1CCN(CC(O)COc2cccc3cc(C(=O)O)oc23)CC1` (stereo not drawn) [Ex. 21 (HCl salt), 2-carboxy-7-{2-hydroxy-3-[4-(2-methoxyphenyl)piperazinyl]propoxy}benzofuran], the Kb was 355 nM in data set [2] (setting [8]) and 3310 nM in data set [3]. This compound also yielded an LD50 at 168 h in data set [4] above 1000 mg/kg.

On to `COc1ccccc1N1CCN(CC(O)COc2cccc3cc(C(=O)O)oc23)CC1` (stereo not drawn) [Ex. 21, 2-carboxy-7-{2-hydroxy-3-[4-(2-methoxyphenyl)piperazinyl]propoxy}benzofuran], for which, in data set [1] (setting [5]), the “Maximum value of change, heart rate” value is on record as -5.8 ± 8.7 beats/min and the “Maximum value of change, systolic pressure” value was -46.9 ± 6.3 mmHg. For the same compound, in data set [1] (setting [6]), the “Maximum value of change, heart rate” value is -25.7 ± 16.4 beats/min and the “Maximum value of change, systolic pressure” value is on record as -73.8 ± 9.9 mmHg.

For the compound `CC(CCc1ccccc1)NCC(O)c1ccc(O)c(C(N)=O)c1` (stereo not drawn) [Labetalol, reference compound], the “Maximum value of change, heart rate” value in data set [1] (setting [5]) is on record as -122.5 ± 37.5 beats/min; in data set [1] (setting [6]) it was -125.2 ± 25.6 beats/min; in data set [1] (setting [7]), -125.2 ± 25.6 beats/min. In addition, the “Maximum value of change, systolic pressure” value in data set [1] (setting [5]) was -32.9 ± 12.9 mmHg; in data set [1] (setting [6]), -55.0 ± 9.1 mmHg; in data set [1] (setting [7]), -55.0 ± 9.1 mmHg. The compound further showed a Kb in data set [2] of 1510 nM.
